Paper PMC8308524, “Interaction between DNA, Albumin and Apo-Transferrin and Iridium(III) Complexes with Phosphines Derived from Fluoroquinolones as a Potent Anticancer Drug” (Pharmaceuticals, 2021)

How the values were obtained:
pBR322 plasmid DNA = test: DNA strand break analysis by agarose gel electrophoresis; assay type: biochemical; details: pBR322, 10 to 500 μM, 1 h, 4 h, 24 h
Description: Since intercalation usually results in relatively large changes in the double helix structure, we assumed that all iridium(III) complexes cause severe DNA cleavage. The binding ability of iridium(III) complexes with another DNA model—pBR322 plasmid DNA, was studied by gel electrophoresis as a target. The degree of plasmid degradation, which is naturally present in a superhelical form (form I), to determine the ability of the compounds to induce single- and/or double-strand damage of the DNA was checked. This process can lead to the formation of the relaxed/nicked (form II) and linear (form III) forms. The degree of DNA degradation was determined in a wide range of the tested compounds’ concentrations (from 10 to 500 μM) at three different incubation times: 1 h, 4 h, and 24 h (Figure 4E1–E3).
It was proven by cyclic voltamperometry, and fluorescence spectroscopy that the studied herein Ir(III) compounds can generate high levels of ROS, therefore the effect of additional H2O2 on the overall ROS production and the associated DNA damages caused by this radical pathway. Furthermore, to confirm the generation of particular types of ROS involved in plasmid degradation, the experiment using DMSO (effective scavenger of ^•OH), SOD (effective scavenger of O2^•−), [50] and NaN3 (effective scavenger of ^1O2) was performed. In order to exclude the effect of the hydrogen peroxide influence on plasmid DNA degradation, we performed an additional gel electrophoresis for H2O2 in different concentrations (Supplementary Materials, Figure S8).
The ability of IrPCp, IrPNr, IrPSf, IrPLm, and phosphine ligands to induce single- or double-strand breaks in plasmid DNA was tested with the pBR322 plasmid (C = 0.5 mg/mL). All compounds were dissolved in DMF; the concentration was kept constant (10% by volume) in the final solution with/without hydrogen peroxide (H2O2, C = 50 μM), superoxide dismutase (SOD, C = 0.62 μM), dimethyl sulfoxide (DMSO, C = 1.4 mM), or sodium azide (NaN3, C = 40 mM). The reaction was also monitored after the addition of various groove binders: methyl green (MG, C = 10 mg/mL), and 4′,6-diamidino-2-phenylindole (DAPI, C = 5 mg/mL). After incubation for 1 h at 37°C, reaction mixtures (20 μL) were mixed with 3 μL of loading buffer (bromophenol blue in 30% glycerol) and loaded on 1% agarose gels, containing EB, in TBE buffer (90 Mm Tris–borate, […], pH = 8.0). Gel electrophoresis was performed at a constant voltage of 100V (4 Vcm-1) for 60 min. The gel was photographed and processed with a Digital Imaging System (Syngen Biotech, Wroclaw, Poland).

[1] = target: T1, human serum albumin (HSA) (Homo sapiens, UniProt P02768); test: Fluorescence quenching of human serum albumin; assay type: binding; details: 50 mM phosphate buffer pH 7.4, excitation 295 nm, Stern–Volmer
T1 construct: purchased Sigma–Aldrich (Hamburg, Germany)
Description: Interest in studying the interaction of metal ions and their compounds with blood plasma proteins, especially with serum albumin (HSA), the most abundant protein in plasma involved in the transport of drugs through the bloodstream, is increasing. This molecule has two main binding sites: site I is located in subdomain IIA and site II is located in subdomain IIIA. […] Changes in the appearance of the Trp-214 residue emission band in HSA, in the presence of the tested compounds, may indicate changes in the protein’s conformation, the association of its subunits or denaturation, or the binding of the compound to protein [53, 56].
(§1) In order to confirm the quenching mechanism, the fluorescence quenching was analyzed according to Stern–Volmer in Equation (2):(2) I0/I=1+KsvC where I0 and I are the fluorescence intensities in the absence and presence of the quencher, respectively, KSV is the Stern–Volmer quenching constant, and [C] is the concentration of the quencher, respectively.
Human serum albumin (HSA) was dissolved in 50 mM phosphate buffer saline (PBS) (pH = 7.4), C (HSA) ≈ 5 × 10^− 5 M. The solution of the HSA was titrated at different molar ratios (0.5, 1, 2, 3, 4, 5, 6, 7, 8, 9 and 10) by IrPCp, IrPNr, IrPSf, IrPLm and phosphine ligands (dissolved in DMSO) and incubated for 1 h with any portion from each of the investigated compounds. The final volume of DMSO was 2% in each sample. Afterward, substances were incubated with HSA solution for 1h at room temperature. The excitation wavelength was equal to 295 nm.

CT DNA = test: Competitive fluorescence quenching of CT DNA-DAPI (minor groove binding); parameters: species or system calf; unit not given here; details: extended Stern–Volmer plot
Description: It is well known that the cytotoxic activity of various drugs (e.g., fluoroquinolones) depends on interaction with DNA [1]. […] Several well-known DNA binding dyes with well-established binding modes were used: ethidium bromide (EB; intercalation), 4′,6-diamidino-2-phenylindole (DAPI; binding to a minor groove), and methyl green (MG; binding to a major groove). The compounds that can bind to DNA more strongly than the above-mentioned binding dyes (EB, DAPI, or MG) reduce the DNA-binding dye emission due to the replacement of dye. The emission spectra of the CT DNA-binding dye complex were measured at different concentrations of the investigated compounds, (Figure 2; Supplementary Materials, Figures S1–S4).
Furthermore, we conducted a similar competitive experiment using DAPI Figure 3, and Figures S2 and S3 in Supplementary Materials. […] The displacement of bound DAPI from its binding site on CT DNA is much stronger than when EB is used. In order to confirm the quenching mechanism, the fluorescence quenching was analyzed according to Stern–Volmer equations (Figure 3A) and KDSV (dynamic quenching constant) values, which are presented in Figure 3B. Based on Stern–Volmer plots (Figure 3A), the strength of CT DNA-DAPI fluorescence quenching formed the following order: IrPSf > IrPCp > IrPNr > IrPLm.
The stock solution was prepared by dissolving of the calf thymus (CT DNA) in 50 mM phosphate buffer saline (PBS) (pH = 7.4). The CT DNA concentration (C = 5 × 10^−5 M) was determined by a UV spectrophotometer using the molar absorption coefficient […] at 258 nm. The stock solution was stored at 4 °C and used for > 6 days. The luminescent complexes of CT DNA with EB (ethidium bromide), DAPI (4′,6-diamidyno−2-fenyloindol), and MG (methyl green) were prepared by mixing the substrates in the equimolar ratio (CCT DNA-fluorescent dye = 5 × 10^−5 M; 50 mM of the phosphate buffer at pH = 7.4). The solution of the CT DNA fluorescent dye system was titrated in different molar ratios (0.5, 1, 2, 3, 4, 5, 6, 7, 8, 9, and 10) with the tested substances (dissolved in DMSO) and incubated for 1 h for each portion of the investigated compounds. The final concentration of DMSO was 2% in each sample. Photoluminescence measurements were recorded at 298 K using a Cary Eclipse Fluorescence Spectrophotometer. The excitation wavelength was 510 nm for the CT DNA-EB complex, 358 nm for the CT DNA-DAPI complex, and 633 nm for the CT DNA-MG complex. The Inner Filter Effect was considered and the corrected intensity of the emission band was calculated using Equation (1), where: Abs—absorbance at analyzed emission wavelength; If—uncorrected emission intensity. (1) Icor=If 2.303 Abs/ 1−10^Abs
as §1
In same case, it was clearly observed that both static and dynamic quenching occur simultaneously where a nonlinear curve is observed. In such cases, extended Stern–Volmer plots can be used to describe the new situation with the following Equation (3). (3) 1−(I/I0)/C=KDSV(I/I0) +V where I0 and I are the fluorescence intensities in the absence and presence of the quencher, respectively; KDSV is the dynamic quenching constant; [C] is the concentration of the quencher, and V is the volume of the sphere of action. We drew the plots of ([1 − (I/I0)]/[C]) versus I/I0. KDSV is the slope of the plot and the static quenching constant V is calculated from the intercept of the plot.

apo-transferrin (apo-Tf) = target: T2, apo-transferrin (apo-Tf) (Homo sapiens, UniProt P02787); test: Fluorescence quenching of apo-transferrin; assay type: binding; details: apo-Tf 3.6 × 10^−6 M, 50 mM phosphate buffer pH 7.4, excitation 295 nm, Stern–Volmer
T2 construct: purchased Sigma–Aldrich (Hamburg, Germany)
Description: A solution of apo-Tf was titrated with increasing concentrations of all the tested compounds, and the fluorescence intensity of apo-Tf was monitored spectrophotometrically (Figure 9A; Supplementary Materials, Figures S6 and S7). At the same time, Ksv values were determined from Stern–Volmer plots (Figure 9B, Table 4).
as §1
Apo-transferrin (apo-Tf) solution was prepared by dissolving the solid protein in 50 mM of phosphate-buffered saline (PBS) (pH = 7.4), C (apo-Tf) ≈ 3,6 × 10^− 6 M. The solution of the Tf was titrated in different molar ratios (0.5, 1, 2, 3, 4, 5, 6, 7, 8, 9, and 10) by IrPCp, IrPNr, IrPSf, IrPLm with corresponding phosphines (dissolved in DMSO) and incubated for 1h with any portion from each of the investigated compounds. The final volume of DMSO was 2% in each sample. The excitation wavelength was equal to 295 nm. The spectra of circular dichroism were recorded using a spectropolarimeter JASCO J-715 (CD and MCD).

T1 sequence (P02768 25-609): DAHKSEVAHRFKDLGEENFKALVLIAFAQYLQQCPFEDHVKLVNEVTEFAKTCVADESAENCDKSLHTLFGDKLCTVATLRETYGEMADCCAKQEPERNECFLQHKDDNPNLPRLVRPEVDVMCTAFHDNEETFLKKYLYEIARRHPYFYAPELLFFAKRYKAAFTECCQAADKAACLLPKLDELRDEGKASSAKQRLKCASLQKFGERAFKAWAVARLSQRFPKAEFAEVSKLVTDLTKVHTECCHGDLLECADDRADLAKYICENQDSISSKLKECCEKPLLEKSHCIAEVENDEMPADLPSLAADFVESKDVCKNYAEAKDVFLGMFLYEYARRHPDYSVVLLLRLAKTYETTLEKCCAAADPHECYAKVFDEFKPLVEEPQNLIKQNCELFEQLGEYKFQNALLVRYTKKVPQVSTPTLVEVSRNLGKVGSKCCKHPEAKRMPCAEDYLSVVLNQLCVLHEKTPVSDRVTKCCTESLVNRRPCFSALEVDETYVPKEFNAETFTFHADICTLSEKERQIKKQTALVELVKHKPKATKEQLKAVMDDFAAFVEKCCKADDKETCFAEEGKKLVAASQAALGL
T2 sequence (P02787 20-698): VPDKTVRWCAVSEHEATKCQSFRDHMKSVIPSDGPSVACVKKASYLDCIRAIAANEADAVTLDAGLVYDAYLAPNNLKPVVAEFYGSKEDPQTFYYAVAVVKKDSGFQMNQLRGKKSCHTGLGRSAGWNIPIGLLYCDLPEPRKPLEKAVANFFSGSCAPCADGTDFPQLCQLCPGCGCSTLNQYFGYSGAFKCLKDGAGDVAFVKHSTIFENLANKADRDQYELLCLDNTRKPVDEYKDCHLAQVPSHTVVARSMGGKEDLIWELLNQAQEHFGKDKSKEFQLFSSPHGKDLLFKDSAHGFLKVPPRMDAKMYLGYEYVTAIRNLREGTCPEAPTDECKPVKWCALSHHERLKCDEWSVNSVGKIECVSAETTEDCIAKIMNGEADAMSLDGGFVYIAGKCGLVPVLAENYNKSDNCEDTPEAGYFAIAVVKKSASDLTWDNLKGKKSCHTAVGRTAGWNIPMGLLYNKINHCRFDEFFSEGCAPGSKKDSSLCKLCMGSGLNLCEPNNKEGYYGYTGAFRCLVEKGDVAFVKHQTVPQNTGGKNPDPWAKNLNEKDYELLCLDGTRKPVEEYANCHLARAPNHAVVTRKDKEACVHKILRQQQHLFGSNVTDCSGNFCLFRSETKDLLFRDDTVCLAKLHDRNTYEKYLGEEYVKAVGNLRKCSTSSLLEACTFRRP

For `Cc1c(C)c(C)[c-](C)c1C.O=C(O)c1cn(C2CC2)c2cc(N3CCN(C[P+](c4ccccc4)(c4ccccc4)[Ir]([Cl])[Cl])CC3)c(F)cc2c1=O` [IrPCp, Ir(η^5-Cp*)Cl2PCp], the “double-strand plasmid damage (formation of linear form III)” value (shortened to “double-strand plasmid damage”) (pBR322 plasmid DNA) was “not presumably capable of double-strand plasmid damage”, the “Ksv (HSA fluorescence quenching)” value [1] was 2.08e+06 M⁻¹ and the “KDSV (dynamic quenching constant)” value (CT DNA) was 3.21×10^3. The “V (static quenching constant, volume of the sphere of action)” value (CT DNA) was 2.21×10^3 and the “Ksv (apo-Tf fluorescence quenching)” value (apo-transferrin (apo-Tf)) was 21800 M⁻¹.
With `CCn1cc(C(=O)O)c(=O)c2cc(F)c(N3CCN(CP(c4ccccc4)c4ccccc4)C(C)C3)c(F)c21` (stereo not drawn) [PLm] the “Ksv (HSA fluorescence quenching)” value [1] was 5.3 M⁻¹ and the “Ksv (apo-Tf fluorescence quenching)” value (apo-transferrin (apo-Tf)) was 152 M⁻¹.
In the case of `CC1CN(c2c(F)c(N)c3c(=O)c(C(=O)O)cn(C4CC4)c3c2F)CC(C)N1C[P+](c1ccccc1)(c1ccccc1)[Ir]([Cl])[Cl].Cc1c(C)c(C)[c-](C)c1C` (stereo not drawn) [IrPSf, Ir(η^5-Cp*)Cl2PSf], the “double-strand plasmid damage” value (pBR322 plasmid DNA) is reported as “not presumably capable of double-strand plasmid damage”, the “Ksv (HSA fluorescence quenching)” value [1] is reported as 5.67e+06 M⁻¹ and the “KDSV (dynamic quenching constant)” value (CT DNA) is reported as 3.62×10^3. For the same molecule, the “V (static quenching constant, volume of the sphere of action)” value (CT DNA) was 2.42×10^3 and the “Ksv (apo-Tf fluorescence quenching)” value (apo-transferrin (apo-Tf)) was 13200 M⁻¹.
`CCn1cc(C(=O)O)c(=O)c2cc(F)c(N3CCN(C[P+](c4ccccc4)(c4ccccc4)[Ir]([Cl])[Cl])C(C)C3)c(F)c21.Cc1c(C)c(C)[c-](C)c1C` (racemic) [IrPLm, Ir(η^5-Cp*)Cl2PLm] was tested, and the “double-strand plasmid damage” value (pBR322 plasmid DNA) was “not presumably capable of double-strand plasmid damage”, the “Ksv (HSA fluorescence quenching)” value [1] was 5.06e+06 M⁻¹ and the “KDSV (dynamic quenching constant)” value (CT DNA) was 2.19×10^3. For the same molecule, the “V (static quenching constant, volume of the sphere of action)” value (CT DNA) was 1.45×10^3 and the “Ksv (apo-Tf fluorescence quenching)” value (apo-transferrin (apo-Tf)) was 19900 M⁻¹.
For `CCn1cc(C(=O)O)c(=O)c2cc(F)c(N3CCN(C[P+](c4ccccc4)(c4ccccc4)[Ir]([Cl])[Cl])CC3)cc21.Cc1c(C)c(C)[c-](C)c1C` [IrPNr, Ir(η^5-Cp*)Cl2PNr], the “double-strand plasmid damage” value (pBR322 plasmid DNA) was “not presumably capable of double-strand plasmid damage”, the “Ksv (HSA fluorescence quenching)” value [1] was 698000 M⁻¹ and the “KDSV (dynamic quenching constant)” value (CT DNA) was 1.72×10^3. For the same molecule, the “V (static quenching constant, volume of the sphere of action)” value (CT DNA) was 1.13×10^3 and the “Ksv (apo-Tf fluorescence quenching)” value (apo-transferrin (apo-Tf)) was 20200 M⁻¹.
In the case of `CC1CN(c2c(F)c(N)c3c(=O)c(C(=O)O)cn(C4CC4)c3c2F)CC(C)N1CP(c1ccccc1)c1ccccc1` (stereo not drawn) [PSf], the “Ksv (apo-Tf fluorescence quenching)” value (apo-transferrin (apo-Tf)) is reported as 11000 M⁻¹.
For `CCn1cc(C(=O)O)c(=O)c2cc(F)c(N3CCN(CP(c4ccccc4)c4ccccc4)CC3)cc21` [PNr], the “Ksv (apo-Tf fluorescence quenching)” value (apo-transferrin (apo-Tf)) was 45.6 M⁻¹.
